From patent US9708315B2, “1,2,4-triazolo[4,3-a]pyridine compounds and their use as positive allosteric modulators of MGLUR2 receptors” (Janssen Pharmaceutica NV, priority 2013, dated 2017)

Tests used:
Format in all cases: in vivo
male NMRI mice = test: Phencyclidine (PCP)-induced hyperlocomotion in mice; conditions: Mus musculus, PO, PCP 5 mg/kg s.c., read-out: ED50 PCP (inhibition of PCP-induced hyperlocomotion)
Experimental: On the day of experiments, the mice were brought into the procedural room. They were housed individually and allowed to acclimate for at least a half hour prior to testing. Although the studies were conducted during the light cycle (from 8:00 to 16:00 h), the procedure room was only sparsely lit (3 to 30 LUX) to provide better contrast for the video tracking. Local lighting was used for the injection procedures. During each trial, an individual mouse was placed in an open field arena (grey PVC cylinder with a height of 40 cm and a diameter of 22.5 cm). Each arena was placed on an infrared LED (8×8 LEDs)-lit box (white PVC squared box; 40×40 cm^2; height 12.5 cm). Each mouse was placed in the center of the arena and allowed to explore freely for 30 min. After each trial, the arena was cleaned with a wet and subsequently with a dry cleaning cloth. […] Animal behavior was recorded and analyzed using the Noldus Ethovision XT Video Tracking System (Version 3.1; Noldus, Wageningen, The Netherlands). The total distance traveled (cm) was calculated. […]
Test compound or solvent was administered at a pre-defined time before measurement (standard: 30 min) to male NMRI mice that were challenged with phencyclidine (PCP; 5 mg/kg, s.c.) 30 min before measurement. Activity was measured for a period of 30 min.

male Wiga Wistar rats = test: Conditioned avoidance response (CAR) test in rats; conditions: Rattus norvegicus, PO, suspension in 20% hydroxypropyl-b-cyclodextrin containing 1% polysorbate 80
Description: The apparatus consisted of an inner box surrounded by an outer box. The inner box was composed of four walls of transparent, synthetic material (length×width×height: 30×30×30 cm), an open top, and a grid floor made of 15 pairs of iron bars (2 mm diameter; 6 mm inter-bar distance). Odd and even bars were connected with a source of alternative current (1.0 mA; Coulbourn Instruments Solid State Shocker/Distributor), which could be interrupted by a switch. The outer box was composed of the same material (length×width×height: 40×40×36 cm), also with an open top, with a distance of 5 cm between the inner and outer box on all sides. To decrease the amount of environmental stimuli, three walls of the outer box were made non-transparent. The front wall was left transparent to allow the necessary inspection of the animal during the test. The upper edge of the outer and inner box served as a target for the rats on which to jump with fore- and hind-paws, respectively. Avoidance Conditioning and Selection of Animals From their arrival in the laboratory on the experimental day, male Wiga Wistar rats (230±30 g) were housed in individual cages provided with bedding material. […] Experimental Sessions The rats were tested 3 times, i.e. at 60, 90 and 120 min after the injection of test compound or solvent. Latency to avoidance was recorded. […]

[1] = tested on: Adult male CF No 1 albino mice; test: 6 Hz psychomotor seizure test in mice; conditions: 10 mg/kg p.o.
Experimental: Test compounds were administered using an optimal fluid volume to body fluid ratio. Test compounds were administered to mice in a volume of 0.01 ml/g of body weight (White, H. S., et al., General principles: Experimental selection, quantification, and evaluation of antiepileptic drugs, in Antiepileptic Drugs, Fourth Edition, R. H. Levy, R. H. Mattson, and B. S. Meldrum, Editors. 1995, Raven Press, Ltd.: New York. p. 99-110). The test compound number 6 was administered orally (p.o.). For each of the tests performed on the test compound, a 40% Hydroxypropyl-β-cyclodextrin (Hp-β-CD) stock solution was first prepared and utilized for formulating the test compound number 6 at the desired concentrations for testing via the oral (p.o.) route. Final compound concentrations were administered as suspensions in 20% Hp-β-CD. A 20% Hp-β-CD solution was used for the vehicle groups.
Adult male CF No 1 albino mice (26-35 g) were obtained from Charles River, Portage, Mich. The animals were maintained on an adequate diet (Prolab RMH 3000) and allowed free access to food and water, except during the short time they were removed from their cage for testing. Animals newly received in the laboratory were allowed sufficient time to correct for possible food and water restriction incurred during transit before being employed in testing. All mice were housed in plastic cages in specially constructed rooms with controlled humidity, exchange of air and controlled lighting (12 hours on-12 hours off). The animals were housed, fed, and handled in a manner consistent with the recommendations in the National Council Publication, “Guide for the Care and Use of Laboratory animals.” Experimental Design General Methods Minimal Motor Impairment (MMI):
Groups of four animals each were administered test compounds and each group was tested at one of five time points: 0.25, 0.5, 1, 2, or 4 h post-treatment (White et al. 1995). TPE was determined using the 6 Hz (32 mA) assay. The time (0.25, 0.5, 1, 2, or 4 h post-treatment) at which maximal protection was observed was considered the Time of Peak Effect (TPE). At the TPE determined for this study, or determined previously, compounds were tested in the 6 Hz assay (32 and/or 44 mA), across several doses and comprising doses that elicited little or no protection to full protection. […] Serum Collection for pK/pD Analysis: In various tests, animals were sacrificed following testing, and trunk blood and/or brain tissue (whole brains) was collected for quantification of drug levels. Immediately after testing, animals were decapitated and trunk blood was collected into a BD Vacutainer® tube containing K2EDTA and chilled on ice until centrifugation. […]

C[C@H](Oc1ccc(F)cc1F)c1ccn2c(CC3CC3)nnc2c1C(F)(F)F [Compound 6, 3-(Cyclopropylmethyl)-7-[(1S)-1-(2,4-difluorophenoxy)ethyl]-8-(trifluoromethyl)[1,2,4]triazolo[4,3-a]pyridine]
ED50 (male NMRI mice): 28.3 mg/kg
ED50 (male Wiga Wistar rats): 8.1 mg/kg
# protected/# tested ([1]; 6 Hz 32 mA, 1 h): 0/4
# protected/# tested ([1]; 6 Hz 32 mA, 4 h): 0/4
# protected/# tested ([1]; dose-response, 6 Hz 32 mA, 0.5 h TPE): 6/8
# protected/# tested ([1]; dose-response, 6 Hz 44 mA, 0.5 h TPE): 0/8
